# Results published in PMC3267017, “Design, synthesis and in vitro evaluation of novel bivalent S-adenosylmethionine analogues” (Bioorganic & Medicinal Chemistry Letters, 2012).
# Structures can show the parent of a compound that is named as a salt. Where two headings read alike, the source gives them in different places.
# What was measured:
# [1] = target: T1, MetJ dimer–DNA complex (F-metC) (Escherichia coli, UniProt P0A8U6); set-up: method as in PMID 19194573; settings: monovalent ligand 4, 2 mM; F-metC 10 nM; read-out: EC50, concentration of MetJ monomer required to promote half-maximal formation of its complex with the F-metC DNA; cited from earlier work
# T1 sequence (P0A8U6 2-105, one chain of several): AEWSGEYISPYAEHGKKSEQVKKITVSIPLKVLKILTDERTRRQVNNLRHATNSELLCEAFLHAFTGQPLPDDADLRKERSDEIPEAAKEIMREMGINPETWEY
# [2] = target: T1, MetJ dimer–DNA complex (F-metC); experiment: Fluorescence anisotropy assay: MetJ titrated into F-metC DNA and ligand, MetJ dimer–DNA complex formation; type: binding; settings: for EC50: F-metC 10 nM, average of three titrations, read-out: EC50, concentration of MetJ monomer required to promote half-maximal formation of its complex with the F-metC DNA
# Source text: A fluorescence anisotropy-based binding assay was used to compare the relative ability of SAM analogues to promote MetJ dimer–DNA complex formation. Since SAM has low affinity for MetJ in the absence of DNA,[8,13] measurements were made in the presence of the DNA fragment F-metC, a fluorescently-labeled analogue of the shortest naturally occurring operator sequence, metC.[14] Titration of MetJ into a solution containing fixed concentrations of F-metC and ligand allows the change in anisotropy related to ternary complex formation to be measured (Fig. 5).
# Figure 5 Cartoon illustrating the fluorescence anisotropy assay. The SAM molecules promote the formation of a SAM–F-metC–protein complex, with two MetJ dimers bound to the 18 base-pair DNA duplex.
# The half-maximal concentration of MetJ, EC50, required to promote complex formation was determined for each ligand. […] The monovalent ligands 11 and 12 (2 mM) and the bivalent ligands 9 and 10 (1 mM) all promoted the formation of the MetJ–DNA complex (Table 1). […] The unquaternised bivalent ligands 9a–e (1 mM) promoted complex formation up to about threefold more effectively than the corresponding monovalent analogue 11. Similarly, the quaternised bivalent ligands 10a and 10b promoted, respectively, complex formation 2.4- and 3.6-fold more effectively than the quaternised monovalent analogue 12.
# Analysis of novel SAM analogues binding to MetJ in the presence of operator DNA was carried out using fluorescence anisotropy. Fluorescence anisotropy experiments were performed on a Spex Fluorolog Tau spectrofluorometer (HORIBA Jobin Yvon) controlled by Datamax software. The excitation and emission wavelengths were set to 488 nm and 517 nm respectively. Slit widths were set to 5 nm and all experiments were carried out at 19 °C. The detector integration time was 5 seconds and three readings were taken of each sample to obtain an average anisotropy. Free anisotropy values were 0.051-0.060. Increase in fluorescence anisotropy was observed upon titration of MetJ into a solution of F-metC (10 nM) with and without ligand ([…]) in TK buffer pH 7.6 (50 mM Trizma hydrochloride pH 7.6, 100 mM KCl) with a total starting volume of 200 µL. […] The final DMSO concentration was 2% or less. After each addition, the sample was mixed with a pipette and left to equilibrate for five minutes before the fluorescence anisotropy readings were acquired. The intensity of linear and perpendicular light, compared to the excitation light is measured experimentally and the anisotropy was calculated using the following equation:‖
# The data was fitted to a sigmoidal growth logistic model using the following equation: […]
# Where A1 refers to the initial value, A2 refers to the final value, x0 refers to the centre and p is a value relating to the slope of the transition. Errors refer the standard deviation of three titration repeats. An arbitrary weighting function with the following equation was employed: […]
compound,measurement,setting,value
CCCNC(=O)CCCN(C)C[C@H]1O[C@@H](n2cnc3c(N)ncnc32)[C@H](O)[C@@H]1O [Compound 4],EC50,[1],1000 ± 100 nM
"C[N+](C)(CCCC(=O)NCCCNC(=O)CCC[N+](C)(C)C[C@H]1O[C@@H](n2cnc3c(N)ncnc32)[C@H](O)[C@@H]1O)C[C@H]1O[C@@H](n2cnc3c(N)ncnc32)[C@H](O)[C@@H]1O.[I-].[I-] [Compound 19b, N,N′-Dimethyl-N,N′-di-[5′-deoxy-5′-N-methyl-N′-(4-butyryl)-adenosine]-1,3-diaminopropane diiodide]",Fold-improvement over monovalent control 5,[2]; quaternised ligands 2 mM,1.4-fold
same,EC50,[2]; quaternised ligands 2 mM,108 ± 3 nM
"C[N+](C)(CC[C@H](N)C(=O)NCc1ccc(CNC(=O)[C@@H](N)CC[N+](C)(C)C[C@H]2O[C@@H](n3cnc4c(N)ncnc43)[C@H](O)[C@@H]2O)cc1)C[C@H]1O[C@@H](n2cnc3c(N)ncnc32)[C@H](O)[C@@H]1O [Compound 10a, N,N′-(1,4-Phenylenebismethylene)bis{(2′S)-2′-amino-4′-[5′′-deoxy-5′′-(dimethylamino)-adenosyl]butanamide}iodide tetratrifluoroacetic acid salt]",EC50,"[2]; bivalent ligand 1 mM, DMSO 2%",15 ± 5 nM
